In general, Ki refers to the dissociation constant of the complex between target and ligand, obtained from inhibition or displacement. One may read the IC50 as the point on the concentration scale where inhibition reaches its midpoint.

We go through one substance from patent publication US20250136650A1, “COMPOSITIONS AND METHODS FOR DNA BINDING AND TRANSCRIPTIONAL REGULATION” (THE UNIVERSITY OF CHICAGO, priority 2021, published 2025).

Entries after “also recorded” stand apart in the source; their conditions may differ. Read-outs that look alike come from different tables or passages of the source.

The subject of experiment [1] is UPRE consensus sequence. The experiment is described as follows: Competitive EMSA with unlabeled UPRE consensus oligo. It is filed as binding. The procedure: (§1) The DNA binding dimer STR22 (shown in FIG. 21 and FIG. 27) was synthesized. STR22 was subjected to EMSA to measure binding to either the UPR element (UPRE) or AP-1 binding site (AP-1).
(§2) Electrophoretic Mobility Shift Assays (EMSAs): For direct DNA binding experiments, STRs were serially diluted at 10× concentration in water and then 1 μL of STR solution was added to 9 μL of 5 nM IRD700-labeled DNA probe bearing either a UPRE or AP-1 motif in a final 1×binding buffer (20 mM HEPES pH 8.0, 150 mM NaCl, 5% glycerol, 1 mM EDTA, 2 mM MgCl2, 0.5 mg/mL BSA, 1 mM DTT, 0.05% NP-40). Samples were incubated for 1 hr at RT. 5 μL of each reaction was loaded on an 8% acrylamide, 0.5×TBE gel equilibrated to 4° C. Samples were resolved for 60 min at 110 V and 4° C. with 0.5×TBE+1 mM MgCl2 running buffer. Gels were pre-run at 110 V for 15 min prior to sample loading. For competition experiments, 30 or 60 nM STRs and 5 nM labeled UPRE probe were incubated with 0, 7.8, 13, 21.6, 36, 60 or 100 nM unlabeled competitor oligo for 1 hr at RT. Gels were imaged using a Li—COR Odyssey. ImageJ was used to quantify band intensity and the fraction of bound DNA was calculated by dividing the band intensity of bound DNA by the band intensity of free DNA from the vehicle treated lane. A four-parameter dose-response curve fit to a plot of normalized fraction bound DNA vs. log STR concentration yielded an the apparent KD. Mobility shift data were excluded from analysis when higher order binding species were observed.

In experiment [2] the test system is UPRE mutant sequence. Kind of experiment: Competitive EMSA with mutant oligo. It is filed as binding. The procedure: as §1
as §2, with “Mobility shift data were excluded from analysis when higher order binding species were observed.” left out

The subject of experiment [3] is FLAG-XBP1s. The experiment is described as follows: Western blot of FLAG-XBP1s. Type of experiment: cell-based, human. As to conditions: HeLa, 20 μM. The procedure: Immunoblotting. Following indicated treatments, cells were first washed with ice-cold PBS. Whole-cell extracts were prepared by directly lysing cells with Laemmli sample buffer (Bio-rad, 1610747) supplemented with 2-Mercaptoethanol (Gibco, 21985023), protease inhibitor (Roche, 4693159001), PMSF (Roche, 10837091001) and phosphatase inhibitor (GB-450) at 4° C. Finally, protein samples were boiled at 95° C. for 5 mins. Western blotting was performed using antibodies for XBP1 (Biolegend, 9D11A43), HIF1α (Novus Biologicals, NB100-479), GAPDH (Santa Cruz Biotech, sc-32233) and α-tubulin (Invitrogen, MA1-19401) were used. Blots were imaged using Li—COR Odyssey Fc.
For orientation: A western blot detects proteins with antibodies after separation by electrophoresis.

The test system of experiment [4] is SUM159 cells. The experiment is described as follows: Relative cell growth, SUM159. It is filed as cell-based.
The subject of experiment [5] is XBP1s. Kind of experiment: 3xUPRE-regulated luciferase reporter, FLAG-XBP1s expressing cells. Type of experiment: cell-based, human. As to conditions: HeLa. The procedure:
Luciferase Assays. Approximately 2×10^4 HeLa cells were seeded in the each well of a 96-well plate. […] Cells were then lysed in diluted cell culture lysis 5× buffer (Promega). 1× luciferase reagents (1 mM D-luciferin, 3 mM ATP, 15 mM MgSO4, 30 mM HEPES pH=7.8) were then added and the mixtures were read for luminescence. For hypoxia response experiments, cells were transfected with 5×HRE-luc (PGK1-derived HRE promoter, Addgene, 128095) vector using Lipofectamine 3000 (Invitrogen) for 4 hrs and then treated with STR22 under 1% 02 (hypoxia) for 24 hrs. Luminescence was read following the aforementioned protocol.
(In general: A reporter such as luciferase makes a cellular process visible.)

For experiment [6], the system named is HIF1α. The experiment is described as follows: ChIP-qPCR of HIF1α binding to HRE-containing genes. It is filed as cell-based, human. As to conditions: hypoxia 1% O2 6 hours, 20 μM 24 hours. The procedure:
Chromatin Immunoprecipitation (ChIP): For XBP1s-ChIP experiments, 3×10^6 HeLa cells were transfected with 1 μg of either the control or Flag-XBP1s vector for 4 hrs and then followed by 20 μM STR22. For hypoxia response experiments, 10×10^6 HeLa cells were treated with 20 μM STR22 for 24 hrs, followed by an additional 6 hrs under 1% 02. At the end of all treatments, cells were crosslinked with 1% formaldehyde for 10 min at 37° C. and then quenched with 125 mM glycine for 1 min. Cells were sheared in buffer containing: 0.1% SDS, 50 mM Tris-HCl (pH 7.6), 1 mM EDTA (pH8.0), 0.002% Triton X-100, supplemented with PMSF (Roche, 10837091001) and protease inhibitor (Roche, 11836170001). Lysates were sonicated with a Bioruptor for a total of 4 cycles for ChIP-qPCR, or 40 cycles for ChIP-sequencing (30 sec on/30 sec off each cycle). Sonicated chromatin was incubated with antibodies overnight at 4° C. Antibodies used: HIF1α (Novis Biologicals, NB100-479), normal rabbit serum (Jackson Immunoresearch, 011-000-001), Flag (Sigma, F1804-200UG), mouse IgG conjugated with Dynabeads Protein A (Life Technologies, 10001D)+G (Invitrogen, 10003D). […]
(In general: Real-time PCR tracks product formation cycle by cycle.)

For “XBP1-derived stapled dimer: RRK^KNR^AAQTARDRKKA#LSELEQQVVDLE linked to RRK^KNR^AAQTARDRKKARLSEL#QQVVDLE; FIG. 27 [STR22]”, the “competition by excess unlabeled UPRE oligonucleotide” value in experiment [1] is “potently competed with excess unlabeled UPRE oligonucleotide”. For the same substance, the Ki in experiment [1] (read-out: Ki for the consensus sequence (EMSA)) turned out to be 28.6 nM; in experiment [1] (unit inferred, read-out: Ki, consensus sequence (FIG. 3 legend)), 28.6 nM. In experiment [2], the “binding to / competition by mutant sequence” value was “not a mutant oligonucleotide; also recorded: not to the shown mutant sequence”. In addition, the FLAG-XBP1s protein levels entry in experiment [3] is “did not affect FLAG-XBP1s protein levels”. Besides, in experiment [4], the “cell growth under hypoxic conditions” value is “significantly slowed cell growth”. In experiment [4], the “proliferation under normoxic conditions” value is on record as “little effect on the proliferation”. The “luciferase reporter expression, FLAG-XBP1s” value in experiment [5] (2.5-20 μM, 12 hours) is recorded as “inhibition of luciferase expression”. In addition, the IC50 in experiment [5] (FLAG-XBP1s, 24 hours, read-out: IC50, XBP1s-induced UPRE reporter signal) was 7400 ± 3500 nM. The “HIF1α binding at HRE target genes (ChIP-qPCR)” value in experiment [6] is recorded as “almost completely blocked HIF1α binding; also recorded: abrogated HIF1α binding”.
